Measurements: patent US20230391768A2, “IMIDAZOPYRIDINE DERIVATIVES AND AZA-IMIDAZOPYRIDINE DERIVATIVES AS JANUS KINASE 2 INHIBITORS AND USES THEREOF” (Dana-Farber Cancer Institute, Inc., priority 2018, published 2023)

Key:
Test in all cases: KINOMEscan
Type in all cases: binding
[1] = target: ABL1(F317L)-phosphorylated (Homo sapiens (Human), UniProt P00519, F317L); conditions: read-out: percent of control
Method: (§1) In vitro profiling of Compound I-2 (1 μM) was performed using the DiscoveRx KINOMEscan® platform.

ABL1-nonphosphorylated = ABL1-nonphosphorylated (Homo sapiens (Human), UniProt P00519); conditions: read-out: percent of control
Sequence of ABL1-nonphosphorylated (P00519 whole entry): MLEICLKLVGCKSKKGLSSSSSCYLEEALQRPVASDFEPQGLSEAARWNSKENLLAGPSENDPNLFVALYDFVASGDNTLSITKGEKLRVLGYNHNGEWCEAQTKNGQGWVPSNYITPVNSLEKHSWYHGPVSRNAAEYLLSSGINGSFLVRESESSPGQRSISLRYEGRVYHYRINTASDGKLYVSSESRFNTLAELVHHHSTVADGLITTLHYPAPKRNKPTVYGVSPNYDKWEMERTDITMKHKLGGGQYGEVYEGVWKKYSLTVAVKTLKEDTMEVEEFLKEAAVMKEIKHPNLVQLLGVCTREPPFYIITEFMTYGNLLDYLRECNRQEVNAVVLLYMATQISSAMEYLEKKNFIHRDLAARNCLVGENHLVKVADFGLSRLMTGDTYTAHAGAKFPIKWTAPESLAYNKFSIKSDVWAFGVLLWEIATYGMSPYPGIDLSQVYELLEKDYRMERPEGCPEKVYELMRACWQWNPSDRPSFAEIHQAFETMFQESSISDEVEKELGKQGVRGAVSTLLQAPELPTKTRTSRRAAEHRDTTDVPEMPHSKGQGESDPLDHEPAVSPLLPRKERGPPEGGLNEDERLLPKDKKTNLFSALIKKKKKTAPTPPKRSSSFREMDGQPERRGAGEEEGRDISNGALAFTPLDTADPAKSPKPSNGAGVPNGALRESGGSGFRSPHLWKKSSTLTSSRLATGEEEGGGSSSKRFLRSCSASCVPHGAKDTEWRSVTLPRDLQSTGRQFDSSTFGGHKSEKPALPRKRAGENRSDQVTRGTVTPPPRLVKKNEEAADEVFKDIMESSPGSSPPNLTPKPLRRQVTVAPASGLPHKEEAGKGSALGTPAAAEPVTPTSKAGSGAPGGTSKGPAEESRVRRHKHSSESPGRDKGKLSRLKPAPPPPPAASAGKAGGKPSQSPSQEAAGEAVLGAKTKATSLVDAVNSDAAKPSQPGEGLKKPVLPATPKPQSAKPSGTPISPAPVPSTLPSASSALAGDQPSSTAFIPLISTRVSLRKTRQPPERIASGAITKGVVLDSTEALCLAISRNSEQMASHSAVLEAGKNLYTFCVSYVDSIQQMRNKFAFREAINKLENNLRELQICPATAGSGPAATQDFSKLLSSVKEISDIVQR
Method: as §1

BLK = BLK (Homo sapiens (Human), UniProt P51451); conditions: read-out: percent of control
Method: as §1

BUB1 = BUB1 (Homo sapiens (Human), UniProt O43683); conditions: read-out: percent of control
Method: as §1

CASK = CASK (Homo sapiens (Human), UniProt O14936); conditions: read-out: percent of control
Method: as §1

CLK4 = CLK4 (Homo sapiens (Human), UniProt Q9HAZ1); conditions: read-out: percent of control
Sequence of CLK4 (Q9HAZ1 whole entry): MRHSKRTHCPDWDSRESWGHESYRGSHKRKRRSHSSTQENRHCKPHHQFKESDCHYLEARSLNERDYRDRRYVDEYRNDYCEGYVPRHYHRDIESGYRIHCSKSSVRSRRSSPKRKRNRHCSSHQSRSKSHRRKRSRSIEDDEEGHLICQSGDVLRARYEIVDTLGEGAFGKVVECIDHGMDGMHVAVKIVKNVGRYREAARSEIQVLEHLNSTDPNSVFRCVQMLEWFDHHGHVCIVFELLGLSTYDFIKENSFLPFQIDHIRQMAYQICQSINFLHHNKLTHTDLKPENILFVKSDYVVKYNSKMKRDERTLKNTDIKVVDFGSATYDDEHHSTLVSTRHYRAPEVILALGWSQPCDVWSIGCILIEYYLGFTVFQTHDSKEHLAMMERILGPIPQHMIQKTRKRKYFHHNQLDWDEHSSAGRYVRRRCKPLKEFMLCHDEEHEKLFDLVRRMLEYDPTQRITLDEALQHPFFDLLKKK
Method: as §1

CSNK1A1L = CSNK1A1L (Homo sapiens (Human), UniProt Q8N752); conditions: read-out: percent of control
Method: as §1

DCAMKL2 = DCAMKL2 (Homo sapiens (Human), UniProt Q8N568); conditions: read-out: percent of control
Method: as §1

DCAMKL3 = DCAMKL3 (Homo sapiens (Human), UniProt Q9C098); conditions: read-out: percent of control
Method: as §1

EIF2AK1 = EIF2AK1 (Homo sapiens (Human), UniProt Q9BQI3); conditions: read-out: percent of control
Method: as §1

ERN1 = ERN1 (Homo sapiens (Human), UniProt O75460); conditions: read-out: percent of control
Method: as §1

FLT3 (ITD,F691L) = conditions: 1 μM
Method: as §1

GSK3A = GSK3A (Homo sapiens (Human), UniProt P49840); conditions: read-out: percent of control
Sequence of GSK3A (P49840 whole entry): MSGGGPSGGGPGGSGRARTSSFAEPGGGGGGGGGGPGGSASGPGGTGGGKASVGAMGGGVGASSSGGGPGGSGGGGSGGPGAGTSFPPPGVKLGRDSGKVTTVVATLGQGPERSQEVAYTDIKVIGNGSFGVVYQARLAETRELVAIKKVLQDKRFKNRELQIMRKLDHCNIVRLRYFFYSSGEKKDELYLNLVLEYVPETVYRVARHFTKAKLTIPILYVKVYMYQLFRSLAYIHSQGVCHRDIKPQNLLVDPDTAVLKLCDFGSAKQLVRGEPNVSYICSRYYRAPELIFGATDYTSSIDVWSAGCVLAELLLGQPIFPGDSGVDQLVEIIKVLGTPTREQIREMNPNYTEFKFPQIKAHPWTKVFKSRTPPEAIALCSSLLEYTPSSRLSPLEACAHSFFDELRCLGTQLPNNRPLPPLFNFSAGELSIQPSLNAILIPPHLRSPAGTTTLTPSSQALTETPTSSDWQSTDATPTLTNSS
Method: as §1

GSK3B = GSK3B (Homo sapiens (Human), UniProt P49841); conditions: read-out: percent of control
Sequence of GSK3B (P49841 whole entry): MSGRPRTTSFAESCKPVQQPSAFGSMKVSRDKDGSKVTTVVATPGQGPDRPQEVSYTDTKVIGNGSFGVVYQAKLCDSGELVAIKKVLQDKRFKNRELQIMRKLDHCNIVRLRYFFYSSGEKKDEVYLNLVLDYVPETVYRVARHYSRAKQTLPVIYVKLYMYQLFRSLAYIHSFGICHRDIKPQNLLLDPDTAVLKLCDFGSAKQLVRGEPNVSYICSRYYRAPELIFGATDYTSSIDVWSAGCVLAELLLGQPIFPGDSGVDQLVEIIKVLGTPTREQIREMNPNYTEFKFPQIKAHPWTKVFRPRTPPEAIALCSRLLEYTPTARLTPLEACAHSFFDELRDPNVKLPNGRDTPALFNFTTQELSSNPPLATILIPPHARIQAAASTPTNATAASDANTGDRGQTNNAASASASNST
Method: as §1

JNK2 = JNK2 (Homo sapiens (Human), UniProt P45984); conditions: read-out: percent of control
Method: as §1

LKB1 = LKB1 (Homo sapiens (Human), UniProt Q15831); conditions: read-out: percent of control
Method: as §1

MAP3K2 = MAP3K2 (Homo sapiens (Human), UniProt Q9Y2U5); conditions: read-out: percent of control
Method: as §1

MAPKAPK2 = MAPKAPK2 (Homo sapiens (Human), UniProt P49137); conditions: read-out: percent of control
Sequence of MAPKAPK2 (P49137 whole entry): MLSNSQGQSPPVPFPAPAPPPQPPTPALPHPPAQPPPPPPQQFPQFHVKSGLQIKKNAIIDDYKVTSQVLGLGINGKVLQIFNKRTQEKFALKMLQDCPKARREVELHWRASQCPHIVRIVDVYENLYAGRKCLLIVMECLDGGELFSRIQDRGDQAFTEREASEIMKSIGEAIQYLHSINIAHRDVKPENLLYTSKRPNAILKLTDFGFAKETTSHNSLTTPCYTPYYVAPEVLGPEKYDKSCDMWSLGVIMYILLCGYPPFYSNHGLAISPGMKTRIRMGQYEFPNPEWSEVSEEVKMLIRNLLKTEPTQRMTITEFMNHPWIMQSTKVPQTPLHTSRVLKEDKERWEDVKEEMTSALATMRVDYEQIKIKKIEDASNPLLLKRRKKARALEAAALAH
Method: as §1

MARK2 = MARK2 (Homo sapiens (Human), UniProt Q7KZI7); conditions: read-out: percent of control
Method: as §1

MKNK2 = MKNK2 (Homo sapiens (Human), UniProt Q9HBH9); conditions: read-out: percent of control
Sequence of MKNK2 (Q9HBH9 whole entry): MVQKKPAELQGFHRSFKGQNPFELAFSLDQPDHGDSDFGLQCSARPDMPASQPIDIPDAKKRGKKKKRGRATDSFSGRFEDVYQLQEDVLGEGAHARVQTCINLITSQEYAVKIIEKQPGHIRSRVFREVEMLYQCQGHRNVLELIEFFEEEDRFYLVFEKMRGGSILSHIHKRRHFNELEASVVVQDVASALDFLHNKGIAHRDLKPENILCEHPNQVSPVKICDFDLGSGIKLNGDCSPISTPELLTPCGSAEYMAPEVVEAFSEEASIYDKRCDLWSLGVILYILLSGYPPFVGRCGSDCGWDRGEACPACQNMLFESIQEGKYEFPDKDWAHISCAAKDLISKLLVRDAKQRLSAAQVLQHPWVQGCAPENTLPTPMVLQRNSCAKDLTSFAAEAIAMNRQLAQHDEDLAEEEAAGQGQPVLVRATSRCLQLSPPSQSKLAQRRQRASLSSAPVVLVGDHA
Method: as §1

MYLK = MYLK (Homo sapiens (Human), UniProt Q15746); conditions: read-out: percent of control
Method: as §1

NEK3 = NEK3 (Homo sapiens (Human), UniProt P51956); conditions: read-out: percent of control
Method: as §1

OSR1 = OSR1 (Homo sapiens (Human), UniProt O95747); conditions: read-out: percent of control
Method: as §1

PAK1 = PAK1 (Homo sapiens (Human), UniProt Q13153); conditions: read-out: percent of control
Sequence of PAK1 (Q13153 whole entry): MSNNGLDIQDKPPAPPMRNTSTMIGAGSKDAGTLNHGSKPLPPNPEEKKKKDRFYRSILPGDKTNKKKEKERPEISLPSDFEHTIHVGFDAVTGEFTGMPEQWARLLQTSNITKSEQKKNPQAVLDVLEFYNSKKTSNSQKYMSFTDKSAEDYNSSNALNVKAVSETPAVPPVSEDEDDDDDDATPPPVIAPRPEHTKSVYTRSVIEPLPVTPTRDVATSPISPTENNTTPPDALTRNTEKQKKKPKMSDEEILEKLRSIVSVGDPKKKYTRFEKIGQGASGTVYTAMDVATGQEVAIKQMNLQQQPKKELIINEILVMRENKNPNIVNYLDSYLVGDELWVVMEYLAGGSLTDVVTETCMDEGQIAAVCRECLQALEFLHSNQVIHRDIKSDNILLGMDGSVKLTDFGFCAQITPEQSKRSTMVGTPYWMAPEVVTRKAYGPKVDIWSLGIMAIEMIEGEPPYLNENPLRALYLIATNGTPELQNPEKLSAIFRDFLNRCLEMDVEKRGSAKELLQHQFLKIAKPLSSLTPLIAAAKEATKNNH
Method: as §1

PAK2 = PAK2 (Homo sapiens (Human), UniProt Q13177); conditions: read-out: percent of control
Method: as §1

PFPK5(P.falciparum) = PFPK5(P.falciparum) (Plasmodium falciparum (isolate 3D7), UniProt P61075); conditions: read-out: percent of control
Method: as §1

PIK3CB = PIK3CB (Homo sapiens (Human), UniProt P42338); conditions: read-out: percent of control
Method: as §1

PIM2 = PIM2 (Homo sapiens (Human), UniProt Q9P1W9); conditions: read-out: percent of control
Method: as §1

PRKCE = PRKCE (Homo sapiens (Human), UniProt Q02156); conditions: read-out: percent of control
Method: as §1

RAF1 = RAF1 (Homo sapiens (Human), UniProt P04049); conditions: read-out: percent of control
Sequence of RAF1 (P04049 whole entry): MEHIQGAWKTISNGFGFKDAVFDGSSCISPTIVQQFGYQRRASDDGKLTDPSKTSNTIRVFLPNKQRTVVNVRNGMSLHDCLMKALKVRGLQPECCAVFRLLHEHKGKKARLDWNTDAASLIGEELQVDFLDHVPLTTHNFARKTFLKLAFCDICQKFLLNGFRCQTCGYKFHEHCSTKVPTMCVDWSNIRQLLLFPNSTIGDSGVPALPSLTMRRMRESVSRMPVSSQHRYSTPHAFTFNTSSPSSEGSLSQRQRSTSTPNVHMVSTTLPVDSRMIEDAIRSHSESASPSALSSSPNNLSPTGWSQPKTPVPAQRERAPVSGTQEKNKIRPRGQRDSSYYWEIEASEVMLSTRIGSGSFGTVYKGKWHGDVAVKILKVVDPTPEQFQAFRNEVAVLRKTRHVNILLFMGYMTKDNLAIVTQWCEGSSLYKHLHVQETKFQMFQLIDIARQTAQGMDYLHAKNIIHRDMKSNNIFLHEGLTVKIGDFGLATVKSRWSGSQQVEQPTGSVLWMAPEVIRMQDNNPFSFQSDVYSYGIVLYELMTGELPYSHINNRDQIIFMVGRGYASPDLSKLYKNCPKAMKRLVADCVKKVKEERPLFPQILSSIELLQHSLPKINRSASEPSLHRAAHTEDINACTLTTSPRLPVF
Method: as §1

RIPK4 = RIPK4 (Homo sapiens (Human), UniProt P57078); conditions: read-out: percent of control
Method: as §1

[2] = target: RSK1 (Kin.Dom.1-N-terminal) (Homo sapiens (Human), UniProt Q15418); conditions: read-out: percent of control
Method: as §1

[3] = target: RSK2 (Kin.Dom.2-C-terminal) (Homo sapiens (Human), UniProt P51812); conditions: read-out: percent of control
Sequence of RSK2 (Kin.Dom.2-C-terminal) (P51812 422-679): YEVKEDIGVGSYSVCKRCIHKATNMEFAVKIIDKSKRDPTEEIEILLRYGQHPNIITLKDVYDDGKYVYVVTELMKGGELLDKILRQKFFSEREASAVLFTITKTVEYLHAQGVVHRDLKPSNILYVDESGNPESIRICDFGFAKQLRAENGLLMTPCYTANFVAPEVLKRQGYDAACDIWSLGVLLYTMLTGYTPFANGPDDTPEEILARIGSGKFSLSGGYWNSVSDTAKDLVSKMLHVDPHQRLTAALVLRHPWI
Method: as §1

TAK1 = TAK1 (Homo sapiens (Human), UniProt O43318); conditions: read-out: percent of control
Method: as §1

TBK1 = TBK1 (Homo sapiens (Human), UniProt Q9UHD2); conditions: read-out: percent of control
Method: as §1

TGFBR2 = TGFBR2 (Homo sapiens (Human), UniProt P37173); conditions: read-out: percent of control
Method: as §1

ULK3 = ULK3 (Homo sapiens (Human), UniProt Q6PHR2); conditions: read-out: percent of control
Method: as §1

YANK2 = YANK2 (Homo sapiens (Human), UniProt Q9NY57); conditions: read-out: percent of control
Method: as §1

YANK3 = YANK3 (Homo sapiens (Human), UniProt Q86UX6); conditions: read-out: percent of control
Method: as §1

Sequence of ABL1(F317L)-phosphorylated (P00519 whole entry F317L): as the sequence (P00519 whole entry) above, with F317L counted along it

Structure (SMILES)	remaining binding at 1 µM [1]	remaining binding at 1 µM (ABL1-nonphosphorylated)	remaining binding at 1 µM (BLK)	remaining binding at 1 µM (BUB1)	remaining binding at 1 µM (CASK)	remaining binding at 1 µM (CLK4)	remaining binding at 1 µM (CSNK1A1L)	remaining binding at 1 µM (DCAMKL2)	remaining binding at 1 µM (DCAMKL3)	remaining binding at 1 µM (EIF2AK1)	remaining binding at 1 µM (ERN1)	percent of control (FLT3 (ITD,F691L))	remaining binding at 1 µM (GSK3A)	remaining binding at 1 µM (GSK3B)	remaining binding at 1 µM (JNK2)	remaining binding at 1 µM (LKB1)	remaining binding at 1 µM (MAP3K2)	remaining binding at 1 µM (MAPKAPK2)	remaining binding at 1 µM (MARK2)	remaining binding at 1 µM (MKNK2)	also measured
CCN1CCN(Cc2cc(NC(=O)c3ccc(C)c(-c4ccc5nc(NC(=O)C6CC6)cn5n4)c3)cc(C(F)(F)F)c2)CC1 [Compound I-2, 3-(2-(cyclopropanecarboxamido)imidazo[1,2-b]pyridazin-6-yl)-N-(3-((4-ethylpiperazin-1-yl)methyl)-5-(trifluoromethyl)phenyl)-4-methylbenzamide]	1.1%	0%	0.75%	100%	86%	11%	100%	98%	91%	100%	84%	12%	43%	93%	46%	73%	28%	72%	96%	87%	remaining binding at 1 µM (MYLK): 65%; remaining binding at 1 µM (NEK3): 100%; remaining binding at 1 µM (OSR1): 99%; remaining binding at 1 µM (PAK1): 81%; remaining binding at 1 µM (PAK2): 93%; remaining binding at 1 µM (PFPK5(P.falciparum)): 91%; remaining binding at 1 µM (PIK3CB): 100%; remaining binding at 1 µM (PIM2): 96%; remaining binding at 1 µM (PRKCE): 86%; remaining binding at 1 µM (RAF1): 13%; remaining binding at 1 µM (RIPK4): 98%; remaining binding at 1 µM [2]: 97%; remaining binding at 1 µM [3]: 78%; remaining binding at 1 µM (TAK1): 1.1%; remaining binding at 1 µM (TBK1): 75%; remaining binding at 1 µM (TGFBR2): 90%; remaining binding at 1 µM (ULK3): 97%; remaining binding at 1 µM (YANK2): 91%; remaining binding at 1 µM (YANK3): 91%
CCN1CCN(Cc2cc(NC(=O)c3ccc(C)c(-c4ccc5nc(NC(=O)C6CC6)cn5c4)c3)cc(C(F)(F)F)c2)CC1 [Compound I-6, 3-(2-(cyclopropanecarboxamido)imidazo[1,2-a]pyridin-6-yl)-N-(3-((4-ethylpiperazin-1-yl)methyl)-5-(trifluoromethyl)phenyl)-4-methylbenzamide]	1.3%	0.1%	0.2%	97%	85%	28%	97%	100%	96%	92%	78%	34%	68%	100%	27%	100%	78%	96%	78%	82%	remaining binding at 1 µM (MYLK): 79%; remaining binding at 1 µM (NEK3): 96%; remaining binding at 1 µM (OSR1): 100%; remaining binding at 1 µM (PAK1): 78%; remaining binding at 1 µM (PAK2): 70%; remaining binding at 1 µM (PFPK5(P.falciparum)): 77%; remaining binding at 1 µM (PIK3CB): 94%; remaining binding at 1 µM (PIM2): 97%; remaining binding at 1 µM (PRKCE): 83%; remaining binding at 1 µM (RAF1): 18%; remaining binding at 1 µM (RIPK4): 100%; remaining binding at 1 µM [2]: 100%; remaining binding at 1 µM [3]: 100%; remaining binding at 1 µM (TAK1): 2.7%; remaining binding at 1 µM (TBK1): 96%; remaining binding at 1 µM (TGFBR2): 86%; remaining binding at 1 µM (ULK3): 100%; remaining binding at 1 µM (YANK2): 100%; remaining binding at 1 µM (YANK3): 100%
